Measurements taken from the supplement of paper PMC13380429.

Key:
Details in all cases: 72 h
[1] = tested on: Caco-2; test: relative viability EC50 (midpoint between 100% and the lowest measured viability); higher = less toxic
[2] = tested on: Calu-3; test: as above
[3] = tested on: Vero E6; test: as above
[4] = tested on: HepG2; test: as above
[5] = tested on: U2OS; test: as above
[6] = tested on: Caco-2; test: drug sensitivity score (DSS) for viability; higher = more toxic; extreme values may be limits of the assay
[7] = tested on: Calu-3; test: as above
[8] = tested on: Vero E6; test: as above
[9] = tested on: HepG2; test: as above
[10] = tested on: U2OS; test: as above
[11] = tested on: Caco-2; test: cell viability relative to DMSO; higher = less toxic
[12] = tested on: Calu-3; test: as above
[13] = tested on: Vero E6; test: as above
[14] = tested on: HepG2; test: as above
[15] = tested on: U2OS; test: as above

SMILES | relative viability EC50 [1] | relative viability EC50 [2] | relative viability EC50 [3] | relative viability EC50 [4] | relative viability EC50 [5] | drug sensitivity score [6] | drug sensitivity score [7] | drug sensitivity score [8] | drug sensitivity score [9] | drug sensitivity score [10] | cell viability ([11]; 1 nM) | cell viability ([11]; 10 nM) | cell viability ([11]; 100 nM) | cell viability ([11]; 1000 nM) | cell viability ([11]; 10000 nM) | cell viability ([12]; 1 nM) | cell viability ([12]; 10 nM) | cell viability ([12]; 100 nM) | cell viability ([12]; 1000 nM) | cell viability ([12]; 10000 nM) | cell viability ([13]; 1 nM) | cell viability ([13]; 10 nM) | cell viability ([13]; 100 nM) | cell viability ([13]; 1000 nM) | cell viability ([13]; 10000 nM) | cell viability ([14]; 1 nM) | cell viability ([14]; 10 nM) | cell viability ([14]; 100 nM) | cell viability ([14]; 1000 nM) | cell viability ([14]; 10000 nM) | cell viability ([15]; 1 nM) | cell viability ([15]; 10 nM) | cell viability ([15]; 100 nM) | cell viability ([15]; 1000 nM) | cell viability ([15]; 10000 nM)
Cc1cc(NC(=O)NCCN2CCC(O)(Cc3ccccc3)CC2)c2ccccc2n1 [palosuran] | > 10 µM | > 10 µM | > 10 µM | > 10 µM | > 10 µM | 0 | 0 | 0 | 0 | 0 | 99.5% | 93.1% | 88.3% | 99.4% | 104% | 95.3% | 91.9% | 103% | 100% | 89.4% | 104% | 106% | 99.4% | 104% | 102% | 102% | 110% | 96.3% | 99.7% | 92.5% | 99.3% | 94.9% | 98% | 96.5% | 103%
O=C(CCN1CCN(C(=O)OCc2cc(Cl)cc(Cl)c2)CC1)c1ccc2[nH]c(=O)oc2c1 [PF-8380] | > 10 µM | > 10 µM | > 10 µM | > 10 µM | > 10 µM | 0 | 0 | 0 | 0 | 0 | 94.8% | 101% | 91.2% | 98.1% | 94.9% | 97.5% | 101% | 94.5% | 99.5% | 113% | 106% | 110% | 104% | 103% | 92.7% | 99.6% | 96.3% | 93.4% | 105% | 97.3% | 98.5% | 101% | 97.9% | 95.6% | 101%
COc1ccc(CNCc2cccc3ccccc23)cc1 [ML133] | > 10 µM | > 10 µM | > 10 µM | > 10 µM | > 10 µM | 0 | 0 | 0 | 0 | 0 | 92.5% | 95.6% | 98.5% | 99.9% | 88.3% | 101% | 101% | 102% | 104% | 94.6% | 91.2% | 100% | 94.1% | 99% | 101% | 97.8% | 108% | 101% | 110% | 112% | 104% | 94.9% | 100% | 98.9% | 97.5%
Cc1c(C(=O)NN2CCCCC2)nn(-c2ccc(Cl)cc2Cl)c1-c1ccc(Cl)cc1 [rimonabant] | > 10 µM | > 10 µM | > 10 µM | > 10 µM | > 10 µM | 0.8 | 0 | 0 | 0 | 0 | 98.7% | 91.3% | 97.7% | 90.5% | 81.1% | 101% | 93.6% | 89.1% | 96.8% | 99.2% | 92.4% | 95% | 88% | 93.5% | 101% | 97.6% | 94.1% | 105% | 103% | 88.3% | 95.6% | 95.8% | 98.1% | 95.4% | 92.7%
COc1cc2c(CCNC(C)=O)c[nH]c2cc1Cl [6-chloromelatonin] | > 10 µM | > 10 µM | > 10 µM | > 10 µM | > 10 µM | 0 | 0 | 0 | 0 | 0 | 96% | 98.3% | 92.7% | 98.1% | 91% | 99.5% | 96.5% | 98.9% | 105% | 98.3% | 97.8% | 93.8% | 96.2% | 89.9% | 102% | 107% | 97.2% | 94.7% | 90.5% | 98.9% | 100% | 101% | 101% | 101% | 99.3%
Cc1ccccc1/N=N/c1ccc(/N=N/c2c(O)ccc3ccccc23)c(C)c1 [sudan-IV] | > 10 µM | > 10 µM | > 10 µM | > 10 µM | > 10 µM | 0 | 0 | 0 | 2.2 | 0 | 96.3% | 119% | 113% | 120% | 94.5% | 98.2% | 107% | 96.6% | 107% | 95.2% | 104% | 100% | 104% | 110% | 87.4% | 96.3% | 111% | 104% | 81.2% | 92.7% | 97.8% | 102% | 93.3% | 95.3% | 90.5%
CCCC(=O)Nc1cccc(NC(=O)c2ccccc2Br)c1 [ML161] | > 10 µM | > 10 µM | > 10 µM | > 10 µM | > 10 µM | 0 | 0 | 0 | 0 | 0 | 93.6% | 95.5% | 89.6% | 96.6% | 94% | 95.4% | 101% | 89.2% | 101% | 105% | 100% | 96.1% | 103% | 98.9% | 97.7% | 91.6% | 98% | 94.9% | 94.2% | 103% | 95.3% | 97.7% | 95.8% | 98.8% | 94.2%
CC(=O)Nc1cccc(O)c1 [metacetamol] | > 10 µM | > 10 µM | > 10 µM | > 10 µM | > 10 µM | 0 | 0 | 0 | 0.6 | 0 | 104% | 101% | 89.1% | 93.8% | 98.8% | 98.1% | 101% | 99.9% | 99.8% | 96.9% | 102% | 94.1% | 96% | 97.9% | 102% | 103% | 91.5% | 93.7% | 92.1% | 83.8% | 103% | 101% | 99.7% | 95.5% | 101%
COc1ccccc1N1CCN(CCCCNC(=O)c2ccc(-c3ccc(C(C)=O)cc3)cc2)CC1 | > 10 µM | > 10 µM | > 10 µM | > 10 µM | > 10 µM | 0 | 0 | 0 | 0.5 | 0 | 93.7% | 94.5% | 119% | 106% | 110% | 101% | 92.6% | 110% | 102% | 96.5% | 104% | 99.5% | 101% | 102% | 95.5% | 104% | 104% | 96.4% | 94.6% | 83.8% | 101% | 95.8% | 102% | 98.4% | 101%
Cc1c(C)c(NCC(=O)N(C)C2CCN(Cc3ccc(C(N)=O)cc3)CC2)c(C)c(C)c1N | > 10 µM | > 10 µM | > 10 µM | > 10 µM | > 10 µM | 0 | 0 | 0 | 0 | 0 | 98.7% | 99.6% | 92.7% | 96.6% | 112% | 105% | 91% | 101% | 104% | 103% | 96.1% | 97.7% | 92.4% | 101% | 105% | 97.5% | 100% | 101% | 102% | 96.7% | 100% | 97% | 102% | 99.2% | 98.1%
CC=C1C(=O)C[C@H]2[C@@H]3CCC4=CC(=O)CC[C@]4(C)[C@H]3CC[C@]12C [GR-235] | > 10 µM | > 10 µM | > 10 µM | > 10 µM | > 10 µM | 1 | 0 | 0 | 0 | 0 | 95.6% | 96.2% | 99.5% | 90.3% | 83.4% | 110% | 89.9% | 100% | 99.8% | 114% | 110% | 108% | 97.8% | 104% | 111% | 85.2% | 93.1% | 95.4% | 101% | 91% | 100% | 98.4% | 102% | 98.2% | 99.1%
C[C@@H]1CN(c2c(F)c(N)c3c(=O)c(C(=O)O)cn(C4CC4)c3c2F)C[C@H](C)N1 [sparfloxacin] | > 10 µM | > 10 µM | > 10 µM | > 10 µM | > 10 µM | 0 | 0 | 0 | 0 | 0 | 96.3% | 101% | 95.1% | 93.4% | 98% | 97.6% | 93% | 106% | 110% | 97.5% | 98.6% | 103% | 103% | 98.6% | 96% | 110% | 98.6% | 111% | 94.7% | 92.5% | 101% | 102% | 95.9% | 101% | 99%
C[C@H]1O[C@@H](O[C@H]2[C@@H](O)C[C@H](O[C@H]3[C@@H](O)C[C@H](O[C@H]4CC[C@@]5(C)[C@H](CC[C@@H]6[C@@H]5C[C@@H](O)[C@]5(C)[C@@H](C7=CC(=O)OC7)CC[C@]65O)C4)O[C@@H]3C)O[C@@H]2C)C[C@H](O)[C@@H]1O [digoxin] | 0.114 µM | 0.449 µM | 0.031 µM | 0.177 µM | 0.182 µM | 18.9 | 14 | 30.2 | 18.9 | 20.1 | 97.7% | 99.5% | 65.7% | 21% | 20.3% | 101% | 102% | 96.4% | 26.5% | 12.8% | 95.1% | 94.9% | 5.8% | 1.2% | 1.3% | 107% | 105% | 72% | 16.4% | 8.7% | 97.3% | 96.1% | 82.7% | 4.6% | 4.8%
N#Cc1cccc(C(=O)Nc2cc(-c3ccccc3)nn2-c2ccccc2)c1 [CDPPB] | > 10 µM | > 10 µM | > 10 µM | > 10 µM | > 10 µM | 0 | 0 | 0 | 0 | 0 | 93.3% | 100% | 108% | 95.4% | 102% | 101% | 95% | 101% | 97.2% | 100% | 98.5% | 96.2% | 98.6% | 99.2% | 103% | 106% | 103% | 97.8% | 107% | 104% | 92.8% | 97% | 97.1% | 93.9% | 91.6%
